The test system of data set [1] is thyroid hormone levels (T4). The conditions noted are these: cited from earlier work; for EC50: read-out: EC50 T4 reduction.
In data set [2] the test system is thyroglobulin (tg:mCherry reporter gene). In words: animal or person. The conditions noted are these: for EC50: read-out: EC50 (tg:mCherry induction). The method, then: In order to avoid interference of test chemicals with early thyroid gland development, zebrafish embryos were cultured in exposure medium until 48 hours post fertilization (hpf). Subsequently, they were exposed to seven known thyroid endocrine disrupters for 3 days (48 to 120 hpf). The non-goitrogenic compound 3,4-dichloroaniline, that is used as reference compound in the zebrafish acute embryo toxicity test was used as negative control. […] No solvents were used. […] Five concentrations and one control were tested per compound and replicate. In the second replicate the range of concentration was adjusted to improve fitting of concentration-response curves. […] Given the lack of appropriate spectral properties stability of exposure concentrations was not analysed for potassium perchlorate. Embryos were kept in the incubator at 26°C and a 14:10 hours light:dark cycle. The exposure was conducted in crystallisation dishes covered with watchmaker glasses with 30 embryos in 30 ml exposure medium (for exposure medium refer to [26]).
Embryos were positioned ventrally toward the microscope objective. Per embryo a bright field image, an autofocus fluorescence image and a Z-stack of 9 images were obtained. The Z-stack was required in case of autofocus failure and manual selection of the focal plane. Fluorescence images were obtained with 400 ms of fluorescent light exposure at maximal light intensity and a gain of 1. […] However, care was taken, that at least 10 images per concentration and replicates were assessed. To avoid a time bias during the analysis the sequence of wells for analysis was arranged in order to obtain a uniform distribution over the entire period of analysis.
The images were analysed using a KNIME workflow (Version 3.3.3., [29]) with the extension “KNIME image processing”. In brief, images were loaded into the workflow and the background was removed automatically using the “rolling ball” procedure of the image J plugin (rolling ball size set to 50 pixels). Subsequently the area containing the thyroid gland was manually selected by drawing a rectangle around the appropriate region using the interactive annotation node. […] If possible the autofocus images were used. In case that the thyroid gland was out of focus due to the presence of autofluorescing pigment cells, an appropriate image from the Z-stack was selected. All subsequent steps were conducted without any user interaction. […] Finally the sum of pixel (reflecting area of the thyroid gland and intensity of fluorescence) was calculated for the labeled area and used as a proxy of fluorescence intensity (see Fig 1 for an overview of the workflow). For each replicate the sum was of pixels was normalized by setting controls to the value of one. For data of individual embryos see S4 Table. The KNIME workflow used for image analysis is provided as supplement file (S1 Workflow).
To characterize the potency of the investigated goitrogenic compounds, we calculated EC50 values of tg:mcherry fluorescence using the pixel sum obtained from image analysis. For each replicate the fluorescence intensity was normalized by dividing the mean fluorescence intensity of each concentration with the mean control fluorescence intensity. Concentration-response curves of tgmcherry fluorescence were fitted to the data using the Hill-slope equation (Eq 1) and used to estimate EC50 values.
The parameter Min was set to 1 and the slope (p) and the maximum fluorescence (Max) were estimated.

For data set [3] the following is noted: ref chemspider (http://www.chemspider.com); cited from earlier work.
The next data set relates to zebrafish embryos. In words: in vivo. As to conditions: for Slope: mortality concentration-response curve. The procedure:
Fish embryo acute toxicity tests were performed similar as described previously, using 10 or 25 embryos per concentration and replicate exposed in crystallization dishes from 48 to 120 hpf. No exchange of exposure media was performed. Lethality was identified by coagulation, missing heartbeat, a non–detached tail and/or missing of somites. Raw data for mortality and phenotypic assessment are provided as S1 Table. Concentration-response curves for mortality are shown in S2 Fig.

The mark [4] stands for this setting: reduction of thyroid hormone levels (immunostaining), ref Thienpont et al. [13].
Where [5] appears, read: 72 hpf, 17777.78 µmol/L, replicate 2, 10 embryos.
[6] abbreviates: 72 hpf, 26666.67 µmol/L, replicate 2, 10 embryos.
The mark [7] stands for this setting: 72 hpf, 40000.00 µmol/L, replicate 2, 10 embryos.
Where [8] appears, read: 72 hpf, 60000.00 µmol/L, replicate 2, 10 embryos.
[9] abbreviates: 72 hpf, 90000.00 µmol/L, replicate 2, 10 embryos.
The mark [10] stands for this setting: 96 hpf, 17777.78 µmol/L, replicate 2, 10 embryos.
Setting [11] is: 96 hpf, 26666.67 µmol/L, replicate 2, 10 embryos.
Where [12] appears, read: 96 hpf, 40000.00 µmol/L, replicate 2, 10 embryos.
Where [13] appears, read: 96 hpf, 60000.00 µmol/L, replicate 2, 10 embryos.
The mark [14] stands for this setting: 96 hpf, 90000.00 µmol/L, replicate 2, 10 embryos.
Where [15] appears, read: 120 hpf, 5625.00 µmol/L, replicate 1, 25 embryos.
Setting [16] is: 120 hpf, 11250.00 µmol/L, replicate 1, 25 embryos.
Setting [17] is: 120 hpf, 17777.78 µmol/L, replicate 2, 10 embryos.
Where [18] appears, read: 120 hpf, 22500.00 µmol/L, replicate 1, 25 embryos.
[19] abbreviates: 120 hpf, 26666.67 µmol/L, replicate 2, 10 embryos.
Where [20] appears, read: 120 hpf, 40000.00 µmol/L, replicate 2, 10 embryos.
The mark [21] stands for this setting: 120 hpf, 45000.00 µmol/L, replicate 1, 25 embryos.
Setting [22] is: 120 hpf, 60000.00 µmol/L, replicate 2, 10 embryos.
Where [23] appears, read: 120 hpf, 90000.00 µmol/L, replicate 1, 25 embryos.
The mark [24] stands for this setting: 120 hpf, 90000.00 µmol/L, replicate 2, 10 embryos.

Structures are written as SMILES. Where two headings read alike, the source gives them in different places.

The term EC50 denotes the midpoint of the concentration-response curve. The LC50 is the concentration that kills 50% of the test population.

For `S=C1NCCN1` [Ethylenethiourea, N, N’-ethylenethiourea], the EC50 is 135 µM in data set [1] (setting [4]) and 366 µM in data set [2] (Danio rerio). In data set [2] (zebrafish, in vivo), the “BMD 20” value is 246 µM. In data set [2] (zebrafish, in vivo), this molecule displayed a Slope of 3.8. For the same molecule, the “Log D (pH 7.4)” value in data set [3] is -0.52.

In the case of `Oc1cc(O)cc(O)c1` [Phloroglucinol, phloroglucinol], in data set [1] (setting [4]), the 50% effective concentration (EC50) is 2700 µM. In addition, the “TDI (T4)” value in data set [1] (thyroid disruption index based on T4 reduction, ref Thienpont et al. [13]) is given as 32. In addition, the EC50 in data set [2] (Danio rerio) stood at 1100 µM. Besides, in data set [2] (zebrafish, in vivo), the “BMD 20” value worked out at 252 µM and the Slope worked out at 0.89. Further, in data set [3], the “Log D (pH 7.4)” value is 0.24.

Turning to `CCCc1cc(=O)[nH]c(=S)[nH]1` [Propylthiouracil, 6-propyl-2-thiouracil], in data set [1] (zebrafish, in vivo), the EC50 is 137 µM and the “TDI (T4)” value was 20. For the same molecule, the EC50 in data set [2] (Danio rerio) was 334 µM. In addition, in data set [2] (zebrafish, in vivo), the “BMD 20” value amounted to 163 µM and the Slope turned out to be 1.7.

In the case of `c1cn[nH]c1` [Pyrazole, pyrazole], the EC50 in data set [2] (zebrafish, in vivo) stood at 637 µM. The “BMD 20” value in data set [2] (zebrafish, in vivo) was determined as 399 µM. Also, the Slope in data set [2] (zebrafish, in vivo) is recorded as 5.7; with zebrafish embryos (24 h of exposure), 56.2; in the data set on zebrafish embryos (48 h of exposure), 56.2; in the data set on zebrafish embryos (72 h of exposure), 132. This molecule came in with a TDI in data set [2] (zebrafish, in vivo) of 67. Also, in data set [3], the “Log D (pH 7.4)” value is listed as 0.43. Further, the “No Surviving” value in the data set on zebrafish embryos (setting [5]) came to 10; with zebrafish embryos (setting [6]), 10; with zebrafish embryos (setting [7]), 10; in the data set on zebrafish embryos (setting [8]) it was 0; in the data set on zebrafish embryos (setting [9]), 0; in the data set on zebrafish embryos (setting [10]) it was 10. Also, the “No Surviving” value in the data set with zebrafish embryos (setting [11]) is reported as 10; in the data set with zebrafish embryos (setting [12]) it was 10; in the data set on zebrafish embryos (setting [13]) it was 0; in the data set on zebrafish embryos (setting [14]), 0; in the data set on zebrafish embryos (setting [15]), 25; in the data set with zebrafish embryos (setting [16]), 25. Also, the “No Surviving” value with zebrafish embryos (setting [17]) stood at 10; in the data set on zebrafish embryos (setting [18]), 23; in the data set on zebrafish embryos (setting [19]), 10; in the data set on zebrafish embryos (setting [20]), 10; with zebrafish embryos (setting [21]), 0; in the data set on zebrafish embryos (setting [22]), 0. Moreover, the “No Surviving” value in the data set on zebrafish embryos (setting [23]) and with zebrafish embryos (setting [24]) was 0 throughout. Also, the No hatched in the data set with zebrafish embryos (setting [5]) is 0; in the data set on zebrafish embryos (setting [6]), 0; in the data set on zebrafish embryos (setting [7]), 0; in the data set on zebrafish embryos (setting [8]), 0; with zebrafish embryos (setting [9]), 0; in the data set on zebrafish embryos (setting [10]) it was 10. Besides, the No hatched in the data set on zebrafish embryos (setting [11]) is 8; with zebrafish embryos (setting [12]), 9; with zebrafish embryos (setting [13]), 0; with zebrafish embryos (setting [14]), 0; with zebrafish embryos (setting [17]), 10; with zebrafish embryos (setting [19]), 9. The No hatched was 9 with zebrafish embryos (setting [20]), 0 with zebrafish embryos (setting [22]) and 0 in the data set on zebrafish embryos (setting [24]). Also, the entries for the “Total Sublethal” value in the data set on zebrafish embryos (setting [7]) and in the data set with zebrafish embryos (setting [12]) were 3 and 10, respectively. Besides, the “nobc (no blood circulation)” value in the data set with zebrafish embryos (setting [7]) amounted to 3. Moreover, the figures for the “nohb (no heartbeat)” value with zebrafish embryos (setting [8]), in the data set on zebrafish embryos (setting [9]) and in the data set with zebrafish embryos (setting [13]) were 10, 10 and 5, respectively. Also, the “nomov (no spontaneous movement)” value in the data set with zebrafish embryos (setting [12]) was found to be 10. Besides, the “k/f (coagulated)” value in the data set with zebrafish embryos (setting [13]) came to 5; in the data set with zebrafish embryos (setting [14]), 10. Besides, the “Sublethal effects Total Sublethal” value was determined as 1 with zebrafish embryos (setting [15]); 1 with zebrafish embryos (setting [16]); 12 in the data set with zebrafish embryos (setting [18]); 4 in the data set on zebrafish embryos (setting [19]); 10 with zebrafish embryos (setting [20]). Further, the Lethal effects k/f is reported as 2 in the data set with zebrafish embryos (setting [18]); 25 in the data set with zebrafish embryos (setting [21]); 10 in the data set with zebrafish embryos (setting [22]); 25 with zebrafish embryos (setting [23]); 10 in the data set with zebrafish embryos (setting [24]). In the data set with zebrafish embryos (setting [19]), this molecule came in with a Sublethal effects mch of 1. Further, the Sublethal effects nomov in the data set with zebrafish embryos (setting [19]) is 4; in the data set on zebrafish embryos (setting [20]), 8. In addition, the “Sublethal effects EdY / EdP” value in the data set with zebrafish embryos (setting [20]) came out at 9. This molecule also gave a Sublethal effects nobc with zebrafish embryos (setting [20]) of 4. In addition, the LC50 with zebrafish embryos (mortality after 24 h of exposure, S2 Fig, unit inferred) amounted to 49000 µM; with zebrafish embryos (mortality after 48 h of exposure, S2 Fig, unit inferred), 49000 µM; in the data set on zebrafish embryos (read-out: LC50 (48–120 hpf), mortality, embryos exposed 48–120 hpf), 42400 µM.

The record behind these values is publication PMC6114901, “An automated screening method for detecting compounds with goitrogenic activity using transgenic zebrafish embryos” (PLoS ONE, 2018).
